From patent publication US20240327382A1 (ALMAC DISCOVERY LIMITED, priority 2021, published 2024)
pIC50: −log10 of the molar value.

target: T1, Full-length USP19 (Homo sapiens, UniProt O94966); experiment: USP19 fluorescence polarisation (FP) assay, Ubiquitin-Lys-TAMRA substrate; format: biochemical; details: average of at least two duplicate experiments
T1 construct: Full-length USP19 was purchased from Boston Biochem (E-576); purchased Boston Biochem E-576
T1 sequence (O94966 1-1318): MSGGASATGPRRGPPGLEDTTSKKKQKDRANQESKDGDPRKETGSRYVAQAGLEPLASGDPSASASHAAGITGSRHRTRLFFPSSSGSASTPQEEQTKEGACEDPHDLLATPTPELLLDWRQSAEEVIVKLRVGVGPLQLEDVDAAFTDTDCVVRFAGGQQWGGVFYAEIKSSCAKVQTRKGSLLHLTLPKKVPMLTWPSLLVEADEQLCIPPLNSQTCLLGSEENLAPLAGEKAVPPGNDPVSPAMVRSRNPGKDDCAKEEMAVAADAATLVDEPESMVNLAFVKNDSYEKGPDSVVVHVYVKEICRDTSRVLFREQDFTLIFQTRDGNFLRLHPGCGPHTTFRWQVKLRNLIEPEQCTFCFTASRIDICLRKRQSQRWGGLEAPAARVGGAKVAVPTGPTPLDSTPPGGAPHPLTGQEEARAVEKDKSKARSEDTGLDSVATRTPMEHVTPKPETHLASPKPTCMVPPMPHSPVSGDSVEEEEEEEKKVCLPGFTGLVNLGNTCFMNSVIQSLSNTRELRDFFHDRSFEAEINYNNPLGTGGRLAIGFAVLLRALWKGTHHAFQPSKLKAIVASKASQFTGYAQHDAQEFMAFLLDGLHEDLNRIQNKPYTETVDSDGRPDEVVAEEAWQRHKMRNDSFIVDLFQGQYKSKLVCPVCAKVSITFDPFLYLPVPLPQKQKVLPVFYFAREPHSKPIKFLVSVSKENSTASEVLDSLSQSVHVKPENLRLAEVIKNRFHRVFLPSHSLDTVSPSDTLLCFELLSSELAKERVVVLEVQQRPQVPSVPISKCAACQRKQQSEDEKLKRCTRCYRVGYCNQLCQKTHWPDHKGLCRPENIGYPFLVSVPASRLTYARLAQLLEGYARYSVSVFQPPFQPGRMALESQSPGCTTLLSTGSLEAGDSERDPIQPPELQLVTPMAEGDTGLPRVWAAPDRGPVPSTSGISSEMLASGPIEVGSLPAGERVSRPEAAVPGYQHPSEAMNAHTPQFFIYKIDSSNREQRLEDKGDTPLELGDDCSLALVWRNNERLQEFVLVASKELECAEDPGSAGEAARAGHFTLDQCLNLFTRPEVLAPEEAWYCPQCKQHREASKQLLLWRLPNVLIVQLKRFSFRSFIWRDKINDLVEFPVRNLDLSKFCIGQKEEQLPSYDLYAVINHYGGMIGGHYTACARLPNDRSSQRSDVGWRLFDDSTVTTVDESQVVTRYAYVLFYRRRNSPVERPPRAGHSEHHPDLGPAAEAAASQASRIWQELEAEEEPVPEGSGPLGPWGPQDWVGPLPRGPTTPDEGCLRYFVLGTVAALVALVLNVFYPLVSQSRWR
Method: USP19 activity was determined in a fluorescence polarisation (FP) homogeneous assay using the isopeptide Ubiquitin-Lys-TAMRA substrate (either AUB-101, Almac Sciences Scotland Limited, or U-558, Boston Biochem, both of which gave identical results). Full-length USP19 was purchased from Boston Biochem (E-576). Unless otherwise stated, all other reagents were purchased from Sigma. Enzymatic reactions were conducted in black flat bottom polystyrene 384-well plates (Nunc) and 30 μL total volume. USP19 (2.5 nM, 10 μL) was incubated in assay buffer (50 mM HEPES (pH 7.4), 150 mM NaCl, 5 mM DTT, 0.05% BSA (w/v), 0.05% CHAPS) in the presence or absence of inhibitor (10 μL). Inhibitors were stored as 10 mM DMSO stocks in an inert environment (low humidity, dark, low oxygen, rt) using the StoragePod® system (Roylan Developments) and serial dilutions were prepared in buffer just prior to the assay (from 200 μM to 2 μM, 8-18 data point curve). Following incubation at RT for 30 min, the enzymatic reactions were initiated by dispensing the Ub substrate (500 nM, 10 μL). FP was measured every 15 min over a period of 90 min (within the linear range of the assay) using a Synergy 4 plate reader (BioTek) exciting at 530 nm and measuring the amount of parallel and perpendicular light at 575 nm. The FP signal was subsequently normalised to the no compound control. Data were plotted and fitted, and the concentrations resulting in 50% inhibition (IC50) were calculated using the non-linear regression curve fitting model using GraphPad (Prism). IC50 values for the inhibitors of the invention are compiled in Tables 1 and 3 and represent the average of at least two duplicate experiments.

| SMILES | pIC50 |
| --- | --- |
| O=C(N1CC[C@@H](Cn2ccc(Cl)cc2=O)C2(CCCC2)C1)N1CC[C@@H](NCC(F)F)C[C@H]1c1cc(F)ccc1F [Example 185, 4-Chloro-1-(((R)-7-((2S,4R)-4-((2,2-difluoroethyl)amino)-2-(2,5-difluorophenyl)piperidine-1-carbonyl)-7-azaspiro[4.5]decan-10-yl)methyl)pyridin-2(1H)-one] | 7.00 to 8.00 |
| O=C(N1CC[C@@H](Cn2ccc(-c3ccccc3)cc2=O)C2(CCCC2)C1)N1CCNC[C@H]1c1ccccc1 (single isomer, unassigned) [Example 16] | > 8.00 |
| CN[C@@H]1CCN(C(=O)N2CC[C@@H](Cn3cnc4ccc(F)cc4c3=O)C3(CCCC3)C2)[C@H](c2ccccc2)C1 [Example 101, 6-Fluoro-3-(((R)-7-((2S,4R)-4-(methylamino)-2-phenylpiperidine-1-carbonyl)-7-azaspiro[4.5]decan-10-yl)methyl)quinazolin-4(3H)-one] | > 8.00 |
| CN[C@@H]1CCN(C(=O)N2CC[C@@H](Cn3cnc(-c4ccccc4OC)cc3=O)C3(CCCC3)C2)[C@H](c2ccccc2)C1 [Example 97, 6-(2-Methoxyphenyl)-3-(((R)-7-((2S,4R)-4-(methylamino)-2-phenylpiperidine-1-carbonyl)-7-azaspiro[4.5]decan-10-yl)methyl)pyrimidin-4(3H)-one] | > 8.00 |
| CN[C@@H]1CCN(C(=O)N2CC[C@@H](Cn3cnc(-c4ccccc4C)cc3=O)C3(CCCC3)C2)[C@H](c2ccccc2)C1 [Example 84, 3-(((R)-7-((2S,4R)-4-(Methylamino)-2-phenylpiperidine-1-carbonyl)-7-azaspiro[4.5]decan-10-yl)methyl)-6-(o-tolyl)pyrimidin-4(3H)-one] | > 8.00 |
| CN[C@@H]1CCN(C(=O)N2CCC(Cn3ccc(-c4ccccc4)cc3=O)CC2)[C@H](c2cc(F)ccc2F)C1 [Example 98, 1-((1-((2S,4R)-2-(2,5-Difluorophenyl)-4-(methylamino)piperidine-1-carbonyl)piperidin-4-yl)methyl)-4-phenylpyridin-2(1H)-one] | > 8.00 |
| CN[C@@H]1CCN(C(=O)N2CC[C@@H](CN3CCOCC3=O)C3(CCCC3)C2)[C@H](c2cc(F)ccc2F)C1 [Example 159, 4-(((R)-7-((2S,4R)-2-(2,5-Difluorophenyl)-4-(methylamino)piperidine-1-carbonyl)-7-azaspiro[4.5]decan-10-yl)methyl)morpholin-3-one] | > 8.00 |
| O=C(N1CCC(Cn2ccc(-c3ccccc3)cc2=O)CC1)N1CCNC[C@H]1c1cc(F)ccc1F [Example 22, (R)-1-((1-(2-(2,5-Difluorophenyl)piperazine-1-carbonyl)piperidin-4-yl)methyl)-4-phenylpyridin-2(1H)-one] | 7.00 to 8.00 |
| O=C(N1CC=C(Cn2cnc(-c3ccccc3)cc2=O)C2(CCCC2)C1)N1CCNC[C@H]1c1ccccc1 (single isomer, unassigned) [Example 2] | 7.00 to 8.00 |
| CN[C@@H]1CCN(C(=O)N2CC[C@@H](Cn3ccc(-c4ccccc4OC)cc3=O)C3(CCCC3)C2)[C@H](c2cccc(F)c2F)C1 [Example 131, 1-(((R)-7-((2S,4R)-2-(2,3-Difluorophenyl)-4-(methylamino)piperidine-1-carbonyl)-7-azaspiro[4.5]decan-10-yl)methyl)-4-(2-methoxyphenyl)pyridin-2(1H)-one] | > 8.00 |
| CN[C@@H]1CCN(C(=O)N2CC[C@@H](Cn3cccnc3=O)C3(CCCC3)C2)[C@H](c2ccc(F)cc2F)C1 [Example 128, 1-(((R)-7-((2S,4R)-2-(2,4-Difluorophenyl)-4-(methylamino)piperidine-1-carbonyl)-7-azaspiro[4.5]decan-10-yl)methyl)pyrimidin-2(1H)-one] | 6.00 to 7.00 |
| CN[C@@H]1CCN(C(=O)N2CC[C@](Cn3ccc(-c4ccccc4)cc3=O)(OC)C3(CCCC3)C2)[C@H](c2ccccc2)C1 [Example 58, 1-(((S)-10-Methoxy-7-((2S,4R)-4-(methylamino)-2-phenylpiperidine-1-carbonyl)-7-azaspiro[4.5]decan-10-yl)methyl)-4-phenylpyridin-2(1H)-one] | > 8.00 |

Results, then the compound that gave them:

| pIC50 | SMILES |
| --- | --- |
| > 8.00 | CN[C@@H]1CCN(C(=O)N2CC[C@@H](Cn3cnc(-c4ccccc4OC)cc3=O)C3(CCCC3)C2)[C@H](c2ccc(F)cc2F)C1 [Example 117, 3-(((R)-7-((2S,4R)-2-(2,4-Difluorophenyl)-4-(methylamino)piperidine-1-carbonyl)-7-azaspiro[4.5]decan-10-yl)methyl)-6-(2-methoxyphenyl)pyrimidin-4(3H)-one] |
| > 8.00 | N[C@@H]1CCN(C(=O)N2CC[C@@H](Cn3cnc(-c4ccccc4)cc3=O)C3(CCCC3)C2)[C@H](c2ccc(F)cc2F)C1 [Example 80, 3-(((R)-7-((2S,4R)-4-Amino-2-(2,4-difluorophenyl)piperidine-1-carbonyl)-7-azaspiro[4.5]decan-10-yl)methyl)-6-phenylpyrimidin-4(3H)-one] |
| > 8.00 | CN[C@@H]1CCN(C(=O)N2CC[C@@H](Cn3cnc4ccccc4c3=O)C3(CCCC3)C2)[C@H](c2cc(F)ccc2F)C1 [Example 199, 3-(((R)-7-((2S,4R)-2-(2,5-Difluorophenyl)-4-(methylamino)piperidine-1-carbonyl)-7-azaspiro[4.5]decan-10-yl)methyl)quinazolin-4(3H)-one] |
| > 8.00 | CN[C@@H]1CCN(C(=O)N2CC[C@@H](Cn3cnc(-c4ccccc4F)cc3=O)C3(CCCC3)C2)[C@H](c2ccc(F)cc2F)C1 [Example 141, 3-(((R)-7-((2S,4R)-2-(2,4-Difluorophenyl)-4-(methylamino)piperidine-1-carbonyl)-7-azaspiro[4.5]decan-10-yl)methyl)-6-(2-fluorophenyl)pyrimidin-4(3H)-one] |
| > 8.00 | O=C(N1CC[C@@H](Cn2cnc(-c3ccccc3)cc2=O)C2(CCCC2)C1)N1CC[C@@H](NCc2ccncn2)C[C@H]1c1cc(F)ccc1F [Example 170, 3-(((R)-7-((2S,4R)-2-(2,5-Difluorophenyl)-4-((pyrimidin-4-ylmethyl)amino)piperidine-1-carbonyl)-7-azaspiro[4.5]decan-10-yl)methyl)-6-phenylpyrimidin-4(3H)-one] |
| > 8.00 | COc1ccccc1-c1cc(=O)n(C[C@@H]2CCN(C(=O)N3CC[C@@H](NCC(F)F)C[C@H]3c3cc(F)ccc3F)CC23CCCC3)cn1 [Example 134, 3-(((R)-7-((2S,4R)-4-((2,2-Difluoroethyl)amino)-2-(2,5-difluorophenyl)piperidine-1-carbonyl)-7-azaspiro[4.5]decan-10-yl)methyl)-6-(2-methoxyphenyl)pyrimidin-4(3H)-one] |
| > 8.00 | O=C(N[C@@H]1CCN(C(=O)N2CC[C@@H](Cn3cnc(-c4ccccc4)cc3=O)C3(CCCC3)C2)[C@H](c2cc(F)ccc2F)C1)C1CC1 [Example 164, N-((2S,4R)-2-(2,5-Difluorophenyl)-1-((R)-10-((6-oxo-4-phenylpyrimidin-1(6H)-yl)methyl)-7-azaspiro[4.5]decane-7-carbonyl)piperidin-4-yl)cyclopropanecarbox-amide] |
